Data reported in article PMC8615111, “Phenolic Thiazoles with Antioxidant and Antiradical Activity. Synthesis, In Vitro Evaluation, Toxicity, Electrochemical Behavior, Quantum Studies and Antimicrobial Screening” (Antioxidants, 2021).

Tests used:
[1] = Cyclic voltammetry of the compounds on graphite-based SPE; assay type: physicochemical; details: CV, 0.1 M HClO4, graphite-based SPE
Experimental: The evaluated compounds’ stock solutions used were prepared at a concentration of 5 mM. To test their redox properties, dilutions of 0.5 mM and 2 mM were prepared in 0.1 M HClO4 electrolyte (pH = 1.2). Screen-printed electrodes (SPEs; Metrohm DropSens, Oviedo, Spain) (planar electrodes) with graphite and gold working electrodes were used. Cyclic voltammetry (CV) and differential pulse voltammetry (DPV) were the electrochemical methods applied. The experimental conditions for each test are mentioned near the corresponding data (Appendix A).
In Figure 2, the cyclic voltammograms (CVs) for each of the compounds considered in this study, compared individually with the voltammogram obtained in the electrolyte (0.1 M HClO4), are presented. Thus, the oxidation/reduction peaks corresponding to the electrochemical transformations suffered by each compound can be observed in the potential range considered, in an acidic environment (low pH). From Figure 3, where the voltammograms of all eight compounds were presented together, a similarity is observed between 8a and 8b, and among the other compounds, whereas 5a and 5b can be noted as having the highest oxidation signals.

[2] = NO˙ radical scavenging assay (Griess reaction); assay type: biochemical; details: 100 µL of test solution 1 mg/mL in DMSO, 150 min, pH 7.4
Outline: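 Sodium nitroprusside solution (10 mM) was incubated 150 min at room temperature in PBS pH 7.4 with test solution (1 mg/mL DMSO stock). Nitrite was quantified by Griess reaction (sulfanilic acid, then naphthylethylenediamine, 30 min) at 546 nm. Percent scavenging was taken relative to control absorbance.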

[3] = ABTS˙^+ radical scavenging assay; assay type: biochemical; details: for IC50: ABTS˙^+ scavenging
[4] = DPPH˙ radical scavenging by cyclic voltammetry
Experimental: The antioxidant properties were evaluated in terms of their activity against some free radicals, and other compounds reported in the literature, relevant for this purpose, such as: • ferric ions (Fe^3+)—used to test the reduction of the antioxidant character of the compounds; • DPPH˙ free radical– used to test the scavenging effect of the compounds on this radical; • hydrogen peroxide (H2O2)—used to test the scavenging effect of the synthesized molecules on this compound; • 2,2,6,6-tetramethylpiperidinyl-1-oxy (TEMPO)—used to test the scavenging effect of the synthesized molecules on this compound.
The radical scavenging properties of the novel compounds and the other antioxidants were determined using a stock DPPH˙ radical solution prepared in absolute ethanol. The antioxidant samples were mixed with DPPH˙ solution and HClO4 electrolyte and incubated in the dark for 30 min. The remaining redox activity of DPPH was measured by cycling the potential between −0.7 V and 1.2 V, with a scan rate of 0.1 V/s.
The nitrogen-centered 2-2-diphenyl-1-picrylhydrazyl radical (DPPH˙) based assay is one of the most commonly employed method to evaluate the ability of a compound to scavenge or neutralize free radicals based on the reduction of the radical.
Taking into account the redox activity of DPPH˙, its diminution by an antioxidant can also be followed by CV, which is expected to show changes in the voltammetric peaks. Figure A5 reports the electrochemical study of initial electrooxidation of DPPH˙ and the novel compounds compared to remaining peaks after their incubation for 30 min. The decrease of all the peaks after mixture incubation indicates the partial consumption of DPPH˙.

Cu^2+ chelation assay = assay type: biochemical
P. aeruginosa ATCC 27853 = assay: Antimicrobial activity, modified microdilution; assay type: cell-based; details: Pseudomonas aeruginosa, ATCC27853; P. aeruginosa ATCC 27853; read-out: MIC
[5] = compound + DPPH, 30 min, 3rd Eox column
[6] = compound + DPPH, 30 min, 3rd Iox column
[7] = compound + DPPH, after 30 min of reaction, 1st Eox column
[8] = compound + DPPH, after 30 min of reaction, 1st Iox column
[9] = compound alone 0.5 mM in 0.1 M HClO4, 1st Eox column
[10] = compound alone 0.5 mM in 0.1 M HClO4, 1st Iox column
[11] = compound alone, 2nd Ered column

SMILES: C/C(=N\Nc1nc(-c2ccc(O)c(O)c2)cs1)c1ccc(O)cc1O.Cl [Compound 8a, (E)-2-(1-(2,4-dihydroxyphenyl)ethylidene)-1-(4-(3,4-dihydroxyphenyl)thiazol-2-yl)hydrazin-1-ium chloride]
- Eox (V) ([1]; 1st oxidation peak): 0.174 V
- Iox (μA) ([1]; 1st oxidation peak): 21.51 μA
- Eox (V) ([1]; 2nd oxidation peak): 0.386 V
- Iox (μA) ([1]; 2nd oxidation peak): 37.08 μA
- Ered (V) ([1]; 2nd reduction peak): 0.101 V
- Ired (μA) ([1]; 2nd reduction peak): −4.79 μA
- Eox (V) ([1]; 3rd oxidation peak): 0.520 V
- Iox (μA) ([1]; 3rd oxidation peak): 4.87 μA
- Ered (V) ([1]; 3rd reduction peak): 0.335 V
- Ired (μA) ([1]; 3rd reduction peak): −38.91 μA
- % of NO˙ Scavenged [2]: 32.72%
- % of ABTS˙^+ Scavenged ([3]; 0.5 µg/mL): 25.40%
- % of ABTS˙^+ Scavenged ([3]; 0.75 µg/mL): 33.32%
- % of ABTS˙^+ Scavenged ([3]; 1 µg/mL): 41.07%
- % of ABTS˙^+ Scavenged ([3]; 1.5 µg/mL): 58.72%
- % of ABTS˙^+ Scavenged ([3]; 2.5 µg/mL): 90.97%
- IC50 [3]: 1.25 µg/mL
- Iox (μA) ([4]; compound + DPPH, 30 min): 11.18 μA
- Eox (V) ([4]; compound + DPPH, 30 min, 2nd Eox): 0.311 V
- Eox (V) [4, 5]: 0.455 V
- Iox (μA) [4, 6]: 20.68 μA
- Eox (V) ([4]; compound + DPPH, 30 min, 4th Eox column): 0.908 V
- Iox (μA) ([4]; compound + DPPH, 30 min, 4th Iox column): 6.39 μA
- Eox (V) [4, 7]: 0.188 V
- Iox (μA) [4, 8]: 11.53 μA
- Iox (μA) ([4]; compound alone): 6.97 μA
- Eox (V) [4, 9]: 0.193 V
- Iox (μA) [4, 10]: 3.56 μA
- Eox (V) ([4]; compound alone, 2nd Eox): 0.325 V
- Ered (V) [4, 11]: 0.278 V
- Ired (μA) ([4]; compound alone, 2nd Ired): −18.04 μA
- Eox (V) ([4]; compound alone, 3rd Eox column): 0.459 V
- Iox (μA) ([4]; compound alone, 3rd Iox column): 22.39 μA
- Eox (V) ([4]; compound alone, 4th Eox column): 0.935 V
- Iox (μA) ([4]; compound alone, 4th Iox column): 6.88 μA
- Chelation Capacity (%), cupric ions (Cu^2+ chelation assay; 3.36 µg/mL): 11.13%
- Chelation Capacity (%), cupric ions (Cu^2+ chelation assay; 6.72 µg/mL): 17.02%
- Chelation Capacity (%), cupric ions (Cu^2+ chelation assay; 10.08 µg/mL): 25.14%
- Chelation Capacity (%), cupric ions (Cu^2+ chelation assay; 13.44 µg/mL): 34.16%
- Chelation Capacity (%), cupric ions (Cu^2+ chelation assay; 16.80 µg/mL): 38.91%
- MIC (P. aeruginosa ATCC 27853): 7.8 µg/mL

SMILES: Cl.Oc1ccc(/C=N/Nc2nc(-c3ccc(O)c(O)c3)cs2)c(O)c1 [Compound 8b, (E)-2-(2,4-dihydroxybenzylidene)-1-(4-(3,4-dihydroxyphenyl)thiazol-2-yl)hydrazin-1-ium chloride]
- Eox (V) ([1]; 1st oxidation peak): 0.166 V
- Iox (μA) ([1]; 1st oxidation peak): 2.19 μA
- Eox (V) ([1]; 2nd oxidation peak): 0.508 V
- Iox (μA) ([1]; 2nd oxidation peak): 40.99 μA
- Ered (V) ([1]; 3rd reduction peak): 0.325 V
- Ired (μA) ([1]; 3rd reduction peak): −40.37 μA
- % of NO˙ Scavenged [2]: 46.30%
- % of ABTS˙^+ Scavenged ([3]; 0.5 µg/mL): 40.09%
- % of ABTS˙^+ Scavenged ([3]; 0.75 µg/mL): 44.44%
- % of ABTS˙^+ Scavenged ([3]; 1 µg/mL): 50.79%
- % of ABTS˙^+ Scavenged ([3]; 1.5 µg/mL): 66.66%
- % of ABTS˙^+ Scavenged ([3]; 2.5 µg/mL): 96.82%
- IC50 [3]: 0.91 µg/mL
- Ered (V) ([4]; compound + DPPH, 30 min, 1st Ered): 0.259 V
- Ired (μA) ([4]; compound + DPPH, 30 min, 1st Ired): −14.96 μA
- Eox (V) [4, 5]: 0.457 V
- Iox (μA) [4, 6]: 18.63 μA
- Eox (V) [4, 7]: 0.247 V
- Iox (μA) [4, 8]: 17.56 μA
- Eox (V) [4, 9]: 0.259 V
- Iox (μA) [4, 10]: 10.92 μA
- Ered (V) [4, 11]: 0.127 V
- Ired (μA) ([4]; compound alone, 2nd Ired): −3.52 μA
- Eox (V) ([4]; compound alone, 3rd Eox column): 0.47 V
- Iox (μA) ([4]; compound alone, 3rd Iox column): 29.61 μA
- Chelation Capacity (%), cupric ions (Cu^2+ chelation assay; 3.36 µg/mL): 7.34%
- Chelation Capacity (%), cupric ions (Cu^2+ chelation assay; 6.72 µg/mL): 11.97%
- Chelation Capacity (%), cupric ions (Cu^2+ chelation assay; 10.08 µg/mL): 16.62%
- Chelation Capacity (%), cupric ions (Cu^2+ chelation assay; 13.44 µg/mL): 20.30%
- Chelation Capacity (%), cupric ions (Cu^2+ chelation assay; 16.80 µg/mL): 26.71%
- MIC (P. aeruginosa ATCC 27853): 31.2 µg/mL
